Assay results published in patent publication US20220273628A1, “EFFECTS OF LYSERGIC ACID DIETHYLAMIDE (LSD) AND OF LSD ANALOGS TO ASSIST PSY[…] G[…] DISORDER OR OTHER ANXIETY NOT RELATED TO LIFE-T[…]” (Universitätsspital Basel, priority 2021, published 2022).
“Also recorded” adds a separate entry of the source.

Tests used:
[1] = test system: patients with life-threatening illness and related anxiety; settings: cited from earlier work
healthy participants = settings: in vivo; cited from earlier work
5-HT2A receptor = 5-HT2A receptor (Homo sapiens, UniProt P28223); settings: cited from earlier work
Sequence of 5-HT2A receptor (P28223 whole entry): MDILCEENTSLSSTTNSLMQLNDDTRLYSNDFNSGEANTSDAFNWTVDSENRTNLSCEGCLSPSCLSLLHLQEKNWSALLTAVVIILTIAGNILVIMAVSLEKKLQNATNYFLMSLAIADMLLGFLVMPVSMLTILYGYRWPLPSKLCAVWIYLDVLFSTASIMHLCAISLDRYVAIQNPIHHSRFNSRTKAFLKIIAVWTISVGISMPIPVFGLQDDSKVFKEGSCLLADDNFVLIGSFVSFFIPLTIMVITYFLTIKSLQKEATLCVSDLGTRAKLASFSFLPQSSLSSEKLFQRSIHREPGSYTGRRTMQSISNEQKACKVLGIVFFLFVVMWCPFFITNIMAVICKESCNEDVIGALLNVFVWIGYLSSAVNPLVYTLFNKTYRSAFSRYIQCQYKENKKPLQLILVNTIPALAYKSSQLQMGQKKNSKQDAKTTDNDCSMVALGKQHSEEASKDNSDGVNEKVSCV

[2] = test system: patients with anxiety disorder without somatic illness; assay: Randomized, double-blind, placebo-controlled phase II cross-over study of LSD: ratings of anxiety, depression and psychological distress; assay type: in vivo, human
Protocol: Specifically, in patients with generalized anxiety disorder, LSD or placebo was administered in double-blind manner in two sessions separated by 6 weeks and anxiety, depression and psychological distress were assessed between sessions, 2, 8, and 16 weeks after the second session. Then patients who received LSD crossed over to placebo and vice versa.
The examples study used a double-blind cross-over design with two treatment sequences each lasting 24 weeks (LSD vs. placebo-assisted psychotherapy) and separated by a […] between-sequence period. Order was counter-balanced and random. Each participant served as its own control over the 52-weeks total study duration. Treatment effects are also compared between subjects for the first 24 week study period before the cross-over.
Each of the four LSD/Placebo sessions lasted 12 hours from 8 AM to 8 PM. Sessions took place in a quiet room at the Ambulatory Study Center of the University Hospital Basel (Basel center) or in the private practice office of Dr. P. Gasser (Solothurn center). At the beginning of the session, current mood and mental state were discussed and a urine drug screen was taken and any AEs since the last visit were recorded. Any open questions or concerns were addressed by the investigator. The participants were advised to lie in a bed or sit comfortably on a chair. Other than going to the bathroom, the participants remained in the treatment room for the entire 12-hour experimental session and were supervised constantly up to 8-12 hours after LSD/placebo administration depending on the participant's response and as needed. The subjective effects of LSD at the dose used in this study were expected to last 8-12 hours (Gasser et al., 2014; Holze et al., 2021; Schmid et al., 2015). […] During the LSD/placebo effect, the participants were instructed to focus their awareness inward. Subjects were encouraged to wear eye shades during the first hours (or the light was dimmed) as well as to listen to music and discussions/talking much with the investigator were discouraged. Subjects were allowed to remain mostly undisturbed with brief physical contacts every two hours when heart rate and blood pressure were measured. At the end of the sessions, 10-12 hours after LSD/placebo administration, the acute subjective peak effects were retrospectively rated by the participants using the 5D-ASC, SCQ, AMRS, and VASs and the experience was discussed. Ten-twelve hours after LSD/placebo administration the participants were allowed to return to their home with company and supervision provided by the partner, a relative, or a friend. If supervision was not available or if effects persisted, the night was spent at the study site.
The STAI is a widely used self-report instrument for assessing anxiety in adults. It includes separate measures of state and trait anxiety (Spielberger et al., 1983). The STAI evaluates the essential qualities of feelings of apprehension, tension, nervousness, and worry. The STAI differentiates between the temporary condition of state anxiety and the more general and long-standing quality of trait anxiety. The STAI state anxiety subscale asks for feelings at the moment of filling out the questionnaire, and the STAI trait anxiety subscale ask subjects to indicate how they generally view themselves. For both subscales, scores from 20 to 39 represent mild anxiety, and scores from 40 to 59 indicated moderate anxiety, whereas scores from 60 to 80 indicated severe anxiety. Both the state and trait STAI are commonly used as outcome measures in studies in patients with anxiety disorder (Fisher et al., 1999; Laakmann et al., 1998). A global STAI score can be derived by adding up the state and trait anxiety scale scores (range: 40-160 points). Similar to the pilot study both STAI scale scores were used to determine study inclusion at the screening visit (Gasser et al., 2014; Gasser et al., 2015). […]

[3] = 200 μg oral, cited from earlier work
[4] = within-subjects, after two LSD sessions
[5] = between-subjects, after the first session, p=0.04
[6] = between-subjects, week 10 (2 weeks after the second dose), p=0.002
[7] = between-subjects, weeks 16 and 24, did not reach statistical significance
[8] = within-subjects, 2 weeks after the second administration, p=0.003

CCN(CC)C(=O)[C@@H]1C=C2c3cccc4[nH]cc(c34)C[C@H]2N(C)C1 [LSD, lysergic acid diethylamide]
STAI anxiety compared with baseline ([1]; 2 months after the two LSD sessions, 200 μg per os): significant decrease | mild affect lability, share of LSD sessions ([1]; in vivo): 14% | mild gait disturbance, share of LSD sessions ([1]; in vivo): 32% | mild-to-moderate emotional distress, share of LSD sessions ([1]; in vivo): 36% | moderate anxiety, share of LSD sessions ([1]; in vivo): 23% | moderately feeling cold, share of LSD sessions ([1]; in vivo): 45% | number of migraine attacks ([1]; two migraine patients): markedly reduced | STAI state anxiety score after LSD (mean±SD) [1, 4]: 41.5±9.7 | STAI trait anxiety score after LSD (mean±SD) [1, 4]: 45.3±10.3 | STAI state anxiety score before LSD (mean±SD) ([1]; within-subjects, baseline): 53.1±13.5 | STAI trait anxiety score before LSD (mean±SD) ([1]; within-subjects, baseline): 53.3±11.3 | decrease in STAI trait anxiety score (mean±SD) ([1]; within-subjects): 8.0±7.7 points | reduction in STAI state anxiety score (mean±SD) ([1]; within-subjects): 11.6±9.5 points | emotional empathy and prosociality (healthy participants): enhancing | recognition of fearful and sad faces (healthy participants): decreasing | activity at the 5-HT2A receptor (5-HT2A receptor): partial 5-HT2A receptor agonist; also recorded: agonists | STAI-S, STAI-T, STAI-G, HDRS, BDI and SCL-90 Global scores compared with baseline ([2]; LSD condition only, 19 patients, 2 weeks after the second treatment session, p=0.006, 0.01, 0.03, 0.02, 0.03): reduced scores on all outcome measures significantly | STAI-S ratings compared with placebo ([2]; between-subjects, first period, week 10 (2 weeks after the second dose), 200 μg per os, p=0.008): significantly reduced | STAI-S ratings compared with placebo ([2]; between-subjects, after the first session, p=0.03): significantly reduced | HDRS scores compared with placebo [2, 5]: already reduced scores | STAI-G ratings compared with placebo [2, 5]: significantly reduced | STAI-T ratings compared with placebo ([2]; between-subjects, week 10 (2 weeks after the second dose), p=0.001): significantly reduced | HDRS scores compared with placebo [2, 6]: significantly reduced | STAI-G ratings compared with placebo [2, 6]: significantly reduced | SCL-90 Global scores compared with placebo ([2]; between-subjects, week 10, p=0.004): significantly reduced | BDI scores compared with placebo ([2]; between-subjects, week 10, p=0.02): significantly reduced | SCL-90 Global compared with placebo ([2]; between-subjects, week 16 and week 24, did not reach statistical significance): remained reduced | STAI-S ratings compared with placebo ([2]; between-subjects, weeks 16 and 24 (8 and 16 weeks after the second dose), did not reach statistical significance): continued to be reduced | STAI-G ratings compared with placebo [2, 7]: continued to be reduced | STAI-T ratings compared with placebo [2, 7]: continued to be reduced | STAI-S symptom score, difference from baseline, compared with placebo ([2]; within-subjects (19 patients), 2 weeks after the second administration, p=0.01): significantly reduced | BDI symptom score, difference from baseline, compared with placebo ([2]; within-subjects, 2 weeks after the second administration, p=0.002): significantly reduced | STAI-G symptom score, difference from baseline, compared with placebo [2, 8]: significantly reduced | STAI-T symptom score, difference from baseline, compared with placebo [2, 8]: significantly reduced | SCL-90 Global symptom score, difference from baseline, compared with placebo ([2]; within-subjects, 2 weeks after the second administration, p=0.004): significantly reduced | HDRS symptom score, difference from baseline, compared with placebo ([2]; within-subjects, 2 weeks after the second administration, p=0.03): significantly reduced | time to maximal concentrations of LSD ([3]; 16 healthy subjects): 1.5 h | half-life ([3]; first-order kinetics up to 12 hours): 3.6 h
